In PMC10178204, “Peptaibol Analogs Show Potent Antibacterial Activity against Multidrug Resistant Opportunistic Pathogens” (International Journal of Molecular Sciences, 2023):
In brackets after ≈: the same amount, converted by molar mass. Several values for one entry are separate records, joined by “and”; a condition that tells them apart may be missing. Equal values may be shown once. Non-standard residues stand in square brackets, D forms with d. Residues, ends and D or L forms follow the SMILES beside them. *: point of attachment. Octanoyl = CCCCCCCC(=O)*; Aib = CC(C)(N)C(=O)O

Key:
[1] = tested on: Bacillus subtilis ATCC 6633; settings: MHB, 5 × 10^5 CFU/mL, 18 h, 35 °C, triplicate
Text: (§1) The antibacterial activity of the peptides was initially assessed on a panel of representative Gram-positive and Gram-negative organisms of high clinical relevance and commonly responsible for bacterial infections in both animals and humans. Bacillus subtilis ATCC 6633 (Bsu) was also included as a rod-shaped model Gram-positive organism. This first panel comprised: Enterococcus faecalis ATCC 29212 (Efa); Streptococcus pyogenes ATCC 12344 (Spy); and Staphylococcus aureus ATCC 25923 (Sau); Gram-negative: Escherichia coli CCUGT (Eco), Klebsiella pneumoniae ATCC 13833 (Kpn), Acinetobacter baumannii ATCC 17978 (Aba), and Pseudomonas aeruginosa ATCC 27853 (Pae) (Table 2). Both the minimum inhibitory concentration (MIC, Table 2) and the minimum bactericidal concentration (MBC, Table S1, Supporting Material) were determined.
(§2) The minimum inhibitory concentration (MIC) and the minimum bactericidal concentration (MBC) of the compounds were determined in triplicate using Mueller–Hinton broth (MHB). […] Therefore, we decided to dissolve all peptides in DMSO to a final concentration of 25 mg/mL, for consistency. The bacteria inoculum was 5 × 10^5 CFU/mL, as recommended by CLSI (Document M07-A10, 2015). […] Reference-type strains, including representatives of both Gram-positive bacteria (Bacillus subtilis ATCC 6633, Enterococcus faecalis ATCC 29212, Staphylococcus aureus ATCC 25923, the methicillin-resistant Staphylococcus aureus ATCC 43300 (MRSA), Streptococcus pyogenes ATCC 12344) and Gram-negative bacteria (Escherichia coli CCUGT, Klebsiella pneumoniae ATCC 13833, Pseudomonas aeruginosa ATCC 27853, and Acinetobacter baumannii ATCC 17978), were acquired from ATCC or CCUG culture collections. Other antibiotic-resistant clinical isolates were present in our collection at the University Teaching Hospital (Azienda Ospedaliero-Universitaria Senese ‘Santa Maria alle Scotte’) in Siena, Tuscany, Italy. Specifically, MDR carbapenem-hydrolyzing class D β-lactamase-producing Acinetobacter baumannii and metallo-β-lactamase-producing Pseudomonas aeruginosa were used in this study (Table 4).

[2] = tested on: Staphylococcus aureus ATCC 25923; settings: MHB, 5 × 10^5 CFU/mL, 18 h, 35 °C, triplicate
Text: as §1, §2

[3] = tested on: Escherichia coli CCUGT; settings: MHB, 5 × 10^5 CFU/mL, 18 h, 35 °C, triplicate
Text: as §1, §2

[4] = tested on: Acinetobacter baumannii ATCC 17978; settings: for MBC Aba / MIC Aba: MHB, 5 × 10^5 CFU/mL, 18 h, 35 °C, triplicate
Text: as §1, §2

[5] = tested on: Pseudomonas aeruginosa ATCC 27853; settings: MHB, 5 × 10^5 CFU/mL, 18 h, 35 °C, triplicate
Text: as §1, §2

[6] = tested on: Streptococcus pyogenes ATCC 12344; settings: MHB, 5 × 10^5 CFU/mL, 18 h, 35 °C, triplicate
Text: as §1, §2

[7] = tested on: Klebsiella pneumoniae ATCC 13833; settings: MHB, 5 × 10^5 CFU/mL, 18 h, 35 °C, triplicate
Text: as §1, §2

[8] = tested on: Enterococcus faecalis ATCC 29212; settings: MHB, 5 × 10^5 CFU/mL, 18 h, 35 °C, triplicate
Text: as §1, §2

[9] = tested on: P. aeruginosa 101/1477 (IMP-1); settings: MHB, 5 × 10^5 CFU/mL, 18 h, 35 °C, triplicate
Protocol: as §2

[10] = tested on: P. aeruginosa VR-143/97 (VIM-1); settings: MHB, 5 × 10^5 CFU/mL, 18 h, 35 °C, triplicate
Protocol: as §2

[11] = tested on: S. aureus ATCC 43300 (MRSA); settings: MHB, 5 × 10^5 CFU/mL, 18 h, 35 °C, triplicate
Protocol: as §2

[12] = tested on: P. aeruginosa VA-182/00 (VIM-2); settings: MHB, 5 × 10^5 CFU/mL, 18 h, 35 °C, triplicate
Protocol: as §2

[13] = tested on: P. aeruginosa 506/99 (VIM-2); settings: MHB, 5 × 10^5 CFU/mL, 18 h, 35 °C, triplicate
Protocol: as §2

[14] = tested on: A. baumannii SI-648 (OXA-23, OXA-51-like); settings: MHB, 5 × 10^5 CFU/mL, 18 h, 35 °C, triplicate
Protocol: as §2

[15] = tested on: A. baumannii SI-12 (OXA-23); settings: MHB, 5 × 10^5 CFU/mL, 18 h, 35 °C, triplicate
Protocol: as §2

[16] = tested on: A. baumannii SI-310 (OXA-24); settings: colistin-resistant isolate; MHB, 5 × 10^5 CFU/mL, 18 h, 35 °C, triplicate
Protocol: as §2

[17] = tested on: blood agar plate (Columbia CNA Agar); assay: Hemolysis on blood agar plate; settings: 35 ± 2 °C, 24 h
Protocol: Hemolysis zones were visually determined and measured. […] For two additional peptides (6 and 15), only a small hemolysis zone (diameter 4–5 mm) was visible, as compared to that of the positive control (Triton X-100, 13 mm).
Briefly, 2 μL of each peptide solution in DMSO (25 mg/mL), corresponding to 50 μg, was spotted on the surface of a blood agar plate (Columbia CNA Agar, Becton Dickinson Italia S.p.A., Florence, Italy). The plate was then incubated at 35 ± 2 °C for 24 h and visually inspected for the presence of hemolysis zones (see Figure S13, Supplementary Material). The experiment was performed in triplicate. Table 2 reports the average value of the diameter of hemolysis zones measured in each individual experiment. Triton X-100 was used as a positive control (diameter of the hemolysis zone: 13 mm), while DMSO was used as a negative control.
Figure S13. Implementation of the hemolysis test as described in Bechlars et al.. After spotting
2 µL (50 µg) of each compound at a random location on the blood agar plate and incubation at 35 ±
2 °C for 24 h, the plates were manually inspected for the presence of hemolysis zones. Triton X-100
and DMSO were used as the positive and negative controls, respectively. Results were interpreted
(1 picture or pasted object on this page, not shown here)

| Molecule | MBC Bsu [1] [µg/mL] | MIC Bsu [1] [µg/mL] | MBC Sau [2] [µg/mL] | MIC Sau [2] [µg/mL] | MIC Eco [3] [µg/mL] | MBC Aba [4] [µg/mL] | MIC Aba [4] [µg/mL] | MIC Pae [5] [µg/mL] | MBC Spy [6] [µg/mL] | MIC Spy [6] [µg/mL] | MBC Kpn [7] [µg/mL] | MIC Kpn [7] [µg/mL] | MBC Efa [8] [µg/mL] | MIC Efa [8] [µg/mL] | MIC P. aeruginosa 101/1477 (IMP-1) [9] [µg/mL] | MIC P. aeruginosa VR-143/97 (VIM-1) [10] | MBC S. aureus ATCC 43300 (MRSA) [11] [µg/mL] | MIC S. aureus ATCC 43300 (MRSA) [11] [µg/mL] | MIC P. aeruginosa VA-182/00 (VIM-2) [12] [µg/mL] | MIC P. aeruginosa 506/99 (VIM-2) [13] [µg/mL] | other results |
| --- | --- | --- | --- | --- | --- | --- | --- | --- | --- | --- | --- | --- | --- | --- | --- | --- | --- | --- | --- | --- | --- |
| 1-Oct-Aib-Gly-Leu-Aib-Lys-Lys-Leu-Aib-Lys-Ile-Leu-NH2 [Peptide 5b] | 16 | 2 | 32 | 8 | 32 | 32 | 4 | 16 | 32 | 2 | 128 | 32 | 16 | 2 | 8 | 16 µg/mL and 8 µg/mL | 2 | 2 | 8 | 8 | MBC Eco [3]: 128 µg/mL; MIC against A. baumannii, in molar units ([4]; corresponding to 2 and 8 μg/mL): 1.8 to 7.2 µM; MBC Pae [5]: 128 µg/mL; MBC P. aeruginosa 101/1477 (IMP-1) [9]: 8 µg/mL; MBC P. aeruginosa VR-143/97 (VIM-1) [10]: 32 µg/mL; MBC P. aeruginosa VA-182/00 (VIM-2) [12]: 32 µg/mL; MBC P. aeruginosa 506/99 (VIM-2) [13]: 32 µg/mL; MBC A. baumannii SI-648 (OXA-23, OXA-51-like) [14]: 4 µg/mL; MIC A. baumannii SI-648 (OXA-23, OXA-51-like) [14]: 4 μg/mL and 4/4 μg/mL; MBC A. baumannii SI-12 (OXA-23) [15]: 8 µg/mL; MIC A. baumannii SI-12 (OXA-23) [15]: 4 µg/mL; MBC A. baumannii SI-310 (OXA-24) [16]: 4 µg/mL; MIC A. baumannii SI-310 (OXA-24) [16]: 2 µg/mL |
| CCCCCCCC(=O)NC(C)(C)C(=O)N[C@@H](CCCCN)C(=O)N[C@@H](CC(C)C)C(=O)NC(C)(C)C(=O)NCC(=O)NCC(=O)N[C@@H](CC(C)C)C(=O)NC(C)(C)C(=O)NCC(=O)N[C@H](C(=O)N[C@@H](CC(C)C)C(N)=O)[C@@H](C)CC [Peptide 2, 1-Oct-Aib-Lys-Leu-Aib-Gly-Gly-Leu-Aib-Gly-Ile-Leu-NH2] (Octanoyl-[Aib]KL[Aib]GGL[Aib]GIL-NH2) | 16 (≈ 13.9 µM) | 4 (≈ 3.48 µM) | 8 (≈ 6.95 µM) | 8 (≈ 6.95 µM) | > 128 | 16 (≈ 13.9 µM) | 16 (≈ 13.9 µM) | > 128 | 4 (≈ 3.48 µM) | 4 (≈ 3.48 µM) | > 128 | 64 (≈ 55.6 µM) | 8 (≈ 6.95 µM) | 4 (≈ 3.48 µM) | > 128 | > 128 µg/mL | 4 (≈ 3.48 µM) | 2 (≈ 1.74 µM) | > 128 | > 128 | MBC A. baumannii SI-648 (OXA-23, OXA-51-like) [14]: 32 µg/mL (≈ 27.8 µM); MIC A. baumannii SI-648 (OXA-23, OXA-51-like) [14]: 16 µg/mL (≈ 13.9 µM); MBC A. baumannii SI-12 (OXA-23) [15]: 32 µg/mL (≈ 27.8 µM); MIC A. baumannii SI-12 (OXA-23) [15]: 32 μg/mL and 32/32 μg/mL; MBC A. baumannii SI-310 (OXA-24) [16]: 32 µg/mL (≈ 27.8 µM); MIC A. baumannii SI-310 (OXA-24) [16]: 32 μg/mL and 32/32 μg/mL; Hemolysis (class) ([17]; 50 μg peptide (2 μL of 25 mg/mL in DMSO) spotted on blood agar, visual, triplicate): +; Hemolysis (d, diameter of hemolysis zone) ([17]; 50 μg spotted on blood agar, average of triplicate): 8 mm |
